Values of other authors in patent US8507652B2, “Pharmaceutical composition, dressing and method for treating skin lesion, intermediate composition and process for preparing said dressing, and use of cerium salt associated with a collagen matrix” (priority 2008, dated 2013).

Columns and labels:
39 bacteria species = 39 bacteria species studied, in vitro
interleucin-6 = conditions: lesions treated with cerium nitrate
TNF-[…] = conditions: lesions treated with cerium nitrate

Question: With O=[N+]([O-])[O-].O=[N+]([O-])[O-].O=[N+]([O-])[O-].[Ce+3] [cerium nitrate] as the molecule, how does the concentration inhibiting growth (39 bacteria species) read?
Answer: ~0.0004 M

Question: What about the interleucin-6 level (interleucin-6) of the same molecule?
Answer: increase

Question: And the “TNF-[…] level” value (TNF-[…])?
Answer: reduction
